The source of these data is patent US8084027B2, “Combinations comprising a CDK inhibitor and a growth factor antibody or anti-mitotic” (Nerviano Medical Sciences S.r.l., priority 2006, dated 2011).

Read-outs that look alike come from different tables or passages of the source.

The subject of data set [1] is DU145 prostate carcinoma cells. Conditions: Compound A 40 mg/kg oral BID; for Time to reach 1 g: DU145 s.c. in athymic mice, docetaxel 10 mg/kg i.v. days 10, 14, 18, in combination Compound A given between docetaxel treatments; for T-C: delay vs control to reach tumor size 1 g, docetaxel 10 mg/kg i.v. On the procedure:
Balb, Nu\Nu male mice, from Harlan (Italy), were maintained in cages with paper filter cover, food and bedding sterilized and water acidified. 2.5×10^6 DU145 prostate carcinoma cells (from the American Type Culture Collection) were injected subcutaneously in athymic mice.
The treatment started 10 days later tumor cells injection when tumors were palpable. Docetaxel was prepared immediately before treatment, while COMPOUND A was prepared every 3 days, on the basis of known stability of the compound.
COMPOUND A was administered by oral route in a volume of 10 ml/kg at the doses of 40 mg/kg twice a day (BID) for 9 days (days 10 to 18). Docetaxel was administered by intravenous route in a volume of 10 ml/kg at the dose of 10 mg/kg on days 10, 14, 18 from the days of cell injection. When combined, COMPOUND A was administered in the interval between the docetaxel treatments at days 11, 12, 13, 15, 16, 17, 19, 20 and 21. Tumor growth and body weight were measured every 3 days. Tumor growth was assessed by caliper. The two diameters were recorded and the tumor weight was calculated according to the following formula: length (mm)×width^2/2. The effect of the antitumor treatment was evaluated as the delay in the onset of an exponential growth of the tumor (see for references, Anticancer drugs 7:437-60, 1996). This delay (T-C value) was defined as the difference of time (in days) required for the treatment group (T) and the control group (C) tumors to reach a predetermined size (1 g). Toxicity was evaluated on the basis of body weight reduction.

Data set [2] relates to DU145 prostate carcinoma cells. Description: In vivo antitumor efficacy using the monoclonal antibody (DU145 xenograft, tumor growth delay). The settings on record: COMPOUND A 40 mg/kg oral BID; for Time to reach 1 g: DU145 s.c. in athymic mice, bevacizumab 20 mg/kg i.p. days 6, 10, 14, 18, in combination COMPOUND A given between bevacizumab treatments; for T-C: delay vs control to reach tumor size 1 g. On the procedure:
Balb, Nu\Nu male mice, from Harlan (Italy), were maintained in cages with paper filter cover, food and bedding sterilized and water acidified. 2.5×10^6 DU145 prostate carcinoma cells (from the American Type Culture Collection) were injected subcutaneously in athymic mice. […] The treatment started 6 days later tumor cell injection when tumors were palpable. Bevacizumab was prepared immediately before treatment, while COMPOUND A was prepared every 3 days, on the basis of known stability of the compound.
COMPOUND A was administrated by oral route in a volume of 10 ml/kg at the dose of 40 mg/kg twice a day (BID) for 12 days (days 6 to 17). Bevacizumab was administered intraperitoneally in a volume of 10 ml/kg at the dose of 20 mg/kg on days 6, 10, 14, 18 from the days of tumor cells injection. When combined, COMPOUND A was administered in the interval between the bevacizumab treatments at days 7, 8, 9, 11, 12, 13, 15, 16, 17, 19, 20 and 21. Tumor growth and body weight were measured every 3 days. Tumor growth was assessed by caliper. The two diameters were recorded and the tumor weight was calculated according the following formula: length (mm)×width^2/2. The effect of the antitumor treatment was evaluated as the delay in the onset of an exponential growth of the tumor (see for references, Anticancer drugs 7:437-60, 1996). This delay (T-C value) was defined as the difference of time (in days) required for the treatment group (T) and the control group (C) tumors to reach a predetermined size (1 g). Toxicity was evaluated on the basis of body weigh reduction.

For `CC(=O)O[C@@]12CO[C@@H]1C[C@H](O)[C@@]1(C)C(=O)[C@H](O)C3=C(C)[C@@H](OC(=O)[C@H](O)[C@@H](NC(=O)OC(C)(C)C)c4ccccc4)C[C@@](O)([C@@H](OC(=O)c4ccccc4)[C@H]21)C3(C)C` [Docetaxel], in data set [1], the “Time to reach 1 g” value is 22.25 ± 2.98 days and the “T-C” value amounted to 5.05 days.

Turning to `CNC(=O)c1nn(C)c2c1C(C)(C)Cc1cnc(Nc3ccc(N4CCN(C)CC4)cc3)nc1-2` [COMPOUND A, 8-[4-(4-methyl-piperazin-1-yl)-phenylamino]-1,4,4-trimethyl-4,5-dihydro-1H-pyrazolo[4,3-h]quinazoline-3-carboxylic acid methylamide], the “Time to reach 1 g” value turned out to be 32.38 ± 2.7 days in data set [2] and 27.4 ± 2.7 days in data set [1]. In addition, the “T-C” value is recorded as 16.88 days in data set [2] (bevacizumab 20 mg/kg i.p.) and 10.21 days in data set [1].

On to “Bevacizumab: antibody to vascular endothelial growth factor”, for which the “Time to reach 1 g” value in data set [2] turned out to be 27.93 ± 3.44 days. Moreover, the “T-C” value in data set [2] (bevacizumab 20 mg/kg i.p.) turned out to be 12.43 days. Moreover, in data set [2] (evaluated on the basis of body weight reduction, bevacizumab 20 mg/kg i.p.), the Toxicity is 0/8.
